Source: article PMC11249646, “Small-Molecule Disruptors of the Interaction between Calcium- and Integrin-Binding Protein 1 and Integrin αIIbβ3 as Novel Antiplatelet Agents” (ACS Pharmacology & Translational Science, 2024)
Like-named read-outs stand apart in the source and are kept apart here.

Experiments:
Type in all cases: binding
[1] = target: T1, CIB1 and αIIb interaction (GST-CIB1 : F-αIIb peptide) (Homo sapiens, UniProt Q99828); test: FP assay, 384-well format (screen); set-up: 384-well SCREEN Efficacy (%): concentration or dose not given beside the values; details: for 384-well SCREEN Efficacy (%) / 384-well SCREEN Confirm? / IC50: F-αIIb peptide; for 384-well SCREEN Confirm?: YES/NO; for IC50: read-out: 384-well SCREEN IC50; for Confirm and Selective?: selective toward αIIb: negative curve class and/or IC50 ratio of >3-fold and/or >2-fold efficacy vs scrambled peptide
T1 construct: made in house; host or cells: BL-21 plus RIL cells (E. coli)
T1 sequence (Q99828 1-191): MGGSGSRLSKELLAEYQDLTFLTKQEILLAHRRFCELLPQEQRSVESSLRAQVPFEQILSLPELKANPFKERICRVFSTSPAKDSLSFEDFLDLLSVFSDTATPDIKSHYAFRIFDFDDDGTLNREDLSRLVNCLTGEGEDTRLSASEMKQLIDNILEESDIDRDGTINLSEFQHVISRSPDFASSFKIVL

[2] = target: T2, GST-CIB1 : F-scrambled peptide (Homo sapiens, UniProt Q99828); test: FP scrambled-peptide counter screen, 384-well format; details: F-scrambled peptide; for 384-well COUNTERSCREEN Confirm?: *: Curve in opposite direction; for IC50: read-out: 384-well COUNTERSCREEN IC50
T2 construct: made in house; host or cells: BL-21 plus RIL cells (E. coli)
T2 sequence (Q99828 1-191): T1 sequence (Q99828 1-191)

[3] = target: T2, GST-CIB1 : F-scrambled peptide; test: FP scrambled-peptide counter screen, 1536-well format; details: scrambled-peptide counterscreen; for COUNTERSCREEN Confirm?: YES/NO call; for COUNTERSCREEN Curve Class: qHTS curve class; for IC50: read-out: COUNTERSCREEN IC50
[4] = target: T3, CIB1 and αIIb interaction (CIB1-GST : F-αIIb peptide) (Homo sapiens, UniProt Q99828); test: FP assay, 1536-well qHTS format (primary and confirmatory screen); details: for CONFIRMATORY SCREEN Confirm?: YES/NO call; for CONFIRMATORY SCREEN Curve Class: qHTS curve class; for CONFIRMATORY SCREEN Curve Class / Curve Class: negative sign = inhibitory curve; for CONFIRMATORY SCREEN Efficacy (%) / Efficacy (%): negative = inhibition
T3 construct: made in house; host or cells: BL-21 plus RIL cells (E. coli)
T3 sequence (Q99828 1-191): T1 sequence (Q99828 1-191)

[5] = confirmatory screen, read-out: CONFIRMATORY SCREEN IC50
[6] = qHTS FP screen hits, Table S2, one class per curve where COUNT > 1
[7] = qHTS FP screen hits, Table S2, read-out: IC50
[8] = qHTS primary screen hits, Table S2
[9] = qHTS primary screen hits, Table S2, read-out: IC50
[10] = qHTS primary screen hits, Table S2, several classes where COUNT > 1

Compound | 384-well SCREEN Efficacy (%) [1] [%] | 384-well SCREEN Confirm? [1] | IC50 [1] [µM] | 384-well COUNTERSCREEN Efficacy (%) [2] [%] | 384-well COUNTERSCREEN Confirm? [2] | IC50 [2] [µM] | COUNTERSCREEN Efficacy (%) [3] [%] | COUNTERSCREEN Confirm? [3] | COUNTERSCREEN Curve Class [3] | CONFIRMATORY SCREEN Confirm? ([4]; confirmatory screen) | CONFIRMATORY SCREEN Curve Class ([4]; confirmatory screen) | CONFIRMATORY SCREEN Efficacy (%) ([4]; confirmatory screen) | IC50 [4, 5] [µM] | Efficacy (%) ([4]; qHTS FP screen hits, Table S2) | Curve Class [4, 6] | IC50 [4, 7] [µM] | Efficacy (%) [4, 8] [%] | IC50 [4, 9] [µM] | Curve Class [4, 10] | also measured
Cc1cc(F)ccc1S(=O)(=O)Nc1cnccc1C(=O)Nc1nc(-c2ccccc2)cs1 [NCGC00345106-03] | 46 | YES | 28.2 | 38 | YES | > 120 | 28 | YES | 4 | YES | -2.1 | -123 | 28.2 | -51 | -2.2 | 50.1 |  |  |  | 
O=C(O)C1=NC(C(=O)O)CC(/C=C/N2c3cc(O)c(OC4OC(CO)C(O)C(O)C4O)cc3CC2C(=O)O)=C1 (stereo not shown) [NCGC00346734-01] | 43 | YES | 39.8 | 10 | YES | > 120 | -18 | YES | 4 | YES | -2.2 | -66 | 50.1 |  |  |  | -25 | 24.1 |  | Curve Class [4, 8]: -2.4
CC(=O)N1CCN(c2ccc(OCc3nn(C)c(C)c3-c3cccc4c(CCCOc5cccc6ccccc56)c(C(=O)O)n(Cc5cccnc5)c34)cc2)CC1 [NCGC00347174-02] | 52 | YES | 28.2 | 15 | YES | > 120 | -33 | YES | 4 | YES | -2.2 | -77 | 22.4 |  |  |  | -31 | 34.1 | -2.4 | 
Cc1c(C)n(Cc2ccc(-c3ccccc3C(=O)O)cc2)c2ccc(C(=O)N[C@@H](C)c3ccc([N+](=O)[O-])cc3)cc12 [NCGC00347955-04] | 56 | YES | 12.6 | 32 | YES | > 120 | 95 | YES | 3 | YES | -1.2 | -52 | 22.4 |  |  |  |  |  |  | IC50 [3]: 89.1 µM
CCc1nnc(NS(=O)(=O)c2ccc(NC(=S)NC(=O)/C=C/c3ccc(F)cc3)cc2)s1 [NCGC00351476-01] | 30 | YES | 4.5 | -30 |  | 5 | 57 | YES | 3 | YES | -1.2 | -36 | 8.9 | -29 | -1.2 | 7.9 |  |  |  | IC50 [3]: 70.8 µM
NS(=O)(=O)c1ccc(Cc2c(-c3cccc(-c4ccccc4F)c3)nn(-c3nc(C(=O)O)cs3)c2O)cc1.O=C(O)C(F)(F)F [NCGC00356464-01] | 57 | YES | 22.4 | 34 | Inconclusive | 10 | -32 | YES | 4 | YES | -1.2 | -74 | 39.8 |  |  |  | -63 | 79.4 | -2.2 | Confirm and Selective? [1]: Inconclusive
Nc1c(Cc2ccc(S(N)(=O)=O)cc2)c(-c2cccc(-c3ccccc3)c2)nn1-c1nc(C(=O)O)cs1.O=C(O)C(F)(F)F [NCGC00356752-02] | 49 | YES | 14.1 | 34 | Inconclusive | 1.6 | 0 | YES | 4 | YES | -2.2 | -78 | 39.8 | -54 | -2.2 | 28.2 |  |  |  | Confirm and Selective? [1]: Inconclusive
COC(=O)C12C(=O)C(C)(O)C(=O)C1(C)C(C)=CC1C34CCC(OC3=O)C(C)(CO)C4CCC12C (stereo not shown) [NCGC00380147-01] | 80 | YES | 32.8 | -50 |  | 26.4 | -27 | YES | 4 | YES | -2.2 | -42 | 17.8 | -32 | -2.2 | 28.2 |  |  |  | 

More lines, main results first:

384-well SCREEN Efficacy (%) [1] [%] | 384-well SCREEN Confirm? [1] | IC50 [1] [µM] | 384-well COUNTERSCREEN Efficacy (%) [2] [%] | 384-well COUNTERSCREEN Confirm? [2] | IC50 [2] [µM] | COUNTERSCREEN Efficacy (%) [3] [%] | COUNTERSCREEN Confirm? [3] | COUNTERSCREEN Curve Class [3] | CONFIRMATORY SCREEN Confirm? ([4]; confirmatory screen) | CONFIRMATORY SCREEN Curve Class ([4]; confirmatory screen) | CONFIRMATORY SCREEN Efficacy (%) ([4]; confirmatory screen) | IC50 [4, 5] [µM] | Efficacy (%) ([4]; qHTS FP screen hits, Table S2) | Curve Class [4, 6] | IC50 [4, 7] [µM] | Efficacy (%) [4, 8] [%] | IC50 [4, 9] [µM] | Curve Class [4, 10] | Compound | also measured
42 | YES | 10 | 74 | YES | > 120 | 14 | YES | 4 | YES | -1.2 | -38 | 8.9 |  |  |  | -54 | 7.1 |  | O=C1C=CC(=O)N1c1cccc(Br)c1 [NCGC00373120-01] | Curve Class [4, 8]: -1.2
70 | YES | 63.4 | 0 | YES | > 120 | -27 | YES | 4 | YES | -2.2 | -63 | 44.7 | -34 | -1.2 | 39.8 |  |  |  | O=C(O)c1cccc(CN2C(=O)/C(=C(\c3ccccc3)c3ccc(Cl)cc3)c3ccccc32)c1 [NCGC00378823-01] | 
70 | YES | 0.32 | 30 | YES* | > 120 | 21 | YES | 4 | YES | -1.2 | -63 | 0.4 | -39 | -1.2 | 2.2 |  |  |  | CC[S+]([O-])c1nc(-c2cccc(OCc3ccccc3)c2)cc(C(F)(F)F)n1 (stereo not shown) [NCGC00379201-03] | 
84 |  | > 120 | 242 |  | 50.1 | 32 | YES | 4 | YES | -2.4 | -66 | 20 |  |  |  | -23 | 28.2 | -1.4 | Cc1ccc(-c2cc(-c3nn(-c4nc(C(=O)O)cs4)c(CC4CC4)c3Cc3ccc(S(N)(=O)=O)c(F)c3)ccc2F)s1.Cl [NCGC00388587-02] | 
60 | YES | 4.5 | 158 | YES | 39.8 | 154 | YES |  | YES | -3 | -77 | 28.2 |  |  |  | -40 | 22.4 | -2.4 | Cc1ccc(-c2cc(-c3nn(-c4nc(C(=O)O)cs4)c(CC4CC4)c3Cc3ccc(S(N)(=O)=O)c(F)c3)ccc2F)o1 [NCGC00389082-01] | IC50 [3]: 79.4 µM
